Several values for one entry are separate records, joined by “and”; a condition that tells them apart may be missing. Identical values can stand only once. Like-named read-outs stand apart in the source and are kept apart here.
What was measured:
[1] = test system: thymus; assay: Thymus weight recorded in the Sephadex model (systemic effect); assay type: in vivo, Sprague-Dawley rats; settings: for Thymus involution % (dose mg/kg): relative to Sephadex control group
Method: (§1) The differentiation between glucocorticosteroid action in the treated lung region and outside this area has been tested by the following test protocol. Sprague-Dawley rats (225 g) were slightly anesthetized with ether and the glucocorticosteroid test preparation in a volume of 0.5 ml/kg was instilled into just the left lung lobe. […] Thirty minutes later, a suspension of Sephadex (5 mg/kg in a volume of 1 ml/kg) was instilled in the trachea well above the bifurcation so that the suspension reached both the left and right lung lobes. Twenty hours later the rats were killed and the left and right lung lobes were dissected out and weighed separately. Also the thymus weight was recorded. Control groups got vehicle instead of glucocorticosteroid preparation and saline instead of Sephadex suspension to determine the weight of non-drug protected Sephadex edema and the normal lung weight, respectively. For each glucocorticosteroid preparation at least 3 doses within the range 0.01-10 mg/kg and with each ≥6 parallels/dose were tested. The glucocorticosteroids were suspended in a vehicle of CMC-Na 0.75%, Tween 80 0.04%, and 0.7% NaCl ad 100%.

[2] = test system: interstitial lung edema; assay: Sephadex model in the rat: lung edema after Sephadex bead instillation, glucocorticosteroid instilled in left lung lobe; assay type: in vivo, Sprague-Dawley rats; settings: for ED50: Rattus norvegicus, read-out: ED50 left lung lobe (required glucocorticosteroid dose to reduce the edema by 50%); for Selectivity ratio ED50 right lung / ED50 left lung: instillation into left lung lobe, higher = more selective for application site
Source text: The selectivity for anti-inflammatory effect at the application site in the lung has been investigated in a model system in the rat after intrabronchial instillation of the glucocorticosteroid.
Instillation of Sephadex beads into rat lung leads to bronchial and alveolar inflammation. This provokes interstitial lung edema, which increases the lung weight and the inflammation can be graded as the increase of the lung weight compared to a vehicle-instilled control group. The lung edema formation can be counteracted by pretreatment with glucocorticosteroids, preferably the local administration as intrabronchial installation or as inhalation. Ideally, an anti-inflammatory action should be obtained only at the site of glucocorticosteroid application in the lung but not outside this area, as this in long term treatment can lead to therapy limiting systemic side effects.
as §1
For a strict local anti-inflammatory treatment of airway diseases the ideal profile of a compound is that it should counteract the inflammation in the locally treated left lung lobe, but not in the right lung half, which is anticipated to be reached by glucocorticosteroid first via the systemic circulation (after absorption from the left lung). The ratio between the required ED50 's (doses reducing the edema by 50%) in the right and left lung halves, respectively, can be used as a parameter for estimation of the selective activity for the application site. For an ideal glucocorticosteroid this selectivity ratio should be high.

[3] = cited from earlier work; for Unwanted GCS actions within the general circulation (in words): highest of the recommended doses for inhalation; for Safety margin (in words): inhaled GCS, highest recommended doses for inhalation
[4] = cited from earlier work; for Plasma half life: after absorption of inhaled GCS; for Site of inactivation (in words): after absorption
[5] = in vivo; cited from earlier work
[6] = compared with budesonide or BDP; cited from earlier work
[7] = intrabronchial instillation into left lung lobe 30 min before Sephadex, lungs weighed 20 h later

| Structure (SMILES) | Thymus involution % (dose mg/kg) ([1]; dose 10 mg/kg) [%] | ED50 [2, 7] [mg/kg] | Selectivity ratio ED50 right lung / ED50 left lung [2] | also measured |
| --- | --- | --- | --- | --- |
| CCCOC(=O)C(=O)[C@@]12O[C@H](CCC)O[C@@H]1C[C@H]1[C@@H]3C[C@H](F)C4=CC(=O)C=C[C@]4(C)[C@@]3(F)[C@@H](O)C[C@@]12C [Example 4, n-propyl (22R)-16α,17α-butylidenedioxy-6α,9α-difluoro-11β-hydroxy-3, 20-dioxopregna-1,4-diene-21-oate] | 6 | < 1 | > 10 |  |
| CCC(=O)OCC(=O)[C@@]1(OC(=O)CC)[C@@H](C)C[C@H]2[C@@H]3CCC4=CC(=O)C=C[C@]4(C)[C@@]3(Cl)[C@@H](O)C[C@@]21C [beclomethasone 17α, 21-dipropionate] |  |  |  | Unwanted GCS actions within the general circulation (in words) [3]: unwanted GCS actions within the general circulation have been reported; Safety margin (in words) [3]: rather narrow safety margin; Plasma half life [4]: ≥ 2 h; Site of inactivation (in words) [4]: inactivated mainly in the liver |
| CCCC1O[C@@H]2C[C@H]3[C@@H]4CCC5=CC(=O)C=C[C@]5(C)[C@H]4[C@@H](O)C[C@]3(C)[C@]2(C(=O)CO)O1 (some centres unmarked) [Budesonide] |  | 0.2 | ~ 1.5 and 1.4 | Selectivity for the application within airways (in words) [5]: low selectivity; Unwanted GCS actions within the general circulation (in words) [3]: unwanted GCS actions within the general circulation have been reported; Safety margin (in words) [3]: rather narrow safety margin; Thymus involution % (dose mg/kg) ([1]; dose 0.3 mg/kg): 22%; Selectivity for activity in the locally treated left lung lobe (in words) ([2]; compared with budesonide and FCB): does not reach any selectivity for the application site in lung; Plasma half life [4]: ≥ 2 h; Site of inactivation (in words) [4]: inactivated mainly in the liver |
| CCC[C@@H]1O[C@@H]2C[C@H]3[C@@H]4C[C@H](F)C5=CC(=O)C=C[C@]5(C)[C@@]4(F)[C@@H](O)C[C@]3(C)[C@]2(C(=O)C(=O)OC)O1 [Example 1, methyl (22R)-16α,17α-butylidenedioxy-6α, 9α-difluoro-11β-hydroxy-3,20-dioxopregna-1,4-diene-21-oate] | -3 | 1.5 | 6.0 | Effect on thymus weight (in words) ([1]; dose 10 mg/kg): do not at all affect the thymus weight |
| CCC[C@@H]1O[C@@H]2C[C@H]3[C@@H]4C[C@H](F)C5=CC(=O)C=C[C@]5(C)[C@@]4(F)[C@@H](O)C[C@]3(C)[C@]2(C(=O)C(=O)OC(C)C)O1 [Example 5, isopropyl (22R)-16α,17α-butylidenedioxy-6α,9α-difluoro-11β-hydroxy-3, 20-dioxopregna-1,4-diene-21-oate] | -1 | 5 | 10.0 | Effect on thymus weight (in words) ([1]; dose 10 mg/kg): do not at all affect the thymus weight |
| CCCCOC(=O)C(=O)[C@H]1[C@H](C)C[C@H]2[C@@H]3C[C@H](F)C4=CC(=O)C=C[C@]4(C)[C@H]3[C@@H](O)C[C@@]21C [FCB, fluocortin butyl ester] | 6 |  | 2-3 and 2.5 | ED50 ([2]; 20 h): 10 mg/kg; Half life time in plasma (in words) ([4]; compared with budesonide): as long half life time in plasma as budesonide; Potency (in words) [6]: lower potency |
| CCC[C@@H]1O[C@@H]2C[C@H]3[C@@H]4C[C@H](F)C5=CC(=O)C=C[C@]5(C)[C@@]4(F)[C@@H](O)C[C@]3(C)[C@]2(C(=O)C(=O)OCC)O1 [Example 3, ethyl (22R)-16α,17α-butylidenedioxy-6α,9α-difluoro-11β-hydroxy-3, 20-dioxopregna-1,4-diene-21-oate] | 15 | 1.7 | 5.9 |  |

From patent US5215979A, “16,17-acetalsubstituted pregnane 21-oic acid derivatives” (priority 1985, dated 1993)
